pIC50: −log10 of the molar value. Where two headings read alike, the source gives them in different places.
Tests used:
[1] = molecular target: histidine-tagged recombinant human TrkA, cytoplasmic domain (Homo sapiens (Human), UniProt P04629); experiment: TrkA ELISA Assay; type: biochemical; conditions: read-out: TrkA Elisa Enzyme Assay IC50; further: 2.5 nM TrkA
Procedure: An enzyme-linked immunosorbant assay (ELISA) was used to assess TrkA kinase activity in the presence of inhibitors. Immulon 4HBX 384-well microtiter plates (Thermo part #8755) were coated with a 0.025 mg/mL solution of poly (Glu, Ala, Tyr; 6:3:1; Sigma P3899). […] The assay buffer consisted of 25 mM MOPS pH 7.5, 0.005% (v/v) Triton X-100 and 5 mM MgCl2. The reaction mixture was removed from the plate by washing with PBS containing 0.1% (v/v) Tween 20. The phosphorylated reaction product was detected using 0.2 μg/mL of a phosphotyrosine specific monoclonal antibody (clone PY20) conjugated to horseradish peroxidase in conjunction with the TMB Peroxidase Substrate System (KPL). After the addition of 1M phosphoric acid, the chromogenic substrate color intensity was quantitated via absorbance at 450 nm. IC50 values were calculated using either a 4 or 5-parameter logistic curve fit.
Table 1 provides averaged IC50 values for compounds of the invention when tested in this assay.

[2] = molecular target: His-tagged recombinant human TrkA (cytoplasmic domain) (Homo sapiens (Human), UniProt P04629); experiment: TrkA Binding Assay (LanthaScreen Eu Kinase Binding Assay)
Sequence of His-tagged recombinant human TrkA (cytoplasmic domain) (P04629 440-796): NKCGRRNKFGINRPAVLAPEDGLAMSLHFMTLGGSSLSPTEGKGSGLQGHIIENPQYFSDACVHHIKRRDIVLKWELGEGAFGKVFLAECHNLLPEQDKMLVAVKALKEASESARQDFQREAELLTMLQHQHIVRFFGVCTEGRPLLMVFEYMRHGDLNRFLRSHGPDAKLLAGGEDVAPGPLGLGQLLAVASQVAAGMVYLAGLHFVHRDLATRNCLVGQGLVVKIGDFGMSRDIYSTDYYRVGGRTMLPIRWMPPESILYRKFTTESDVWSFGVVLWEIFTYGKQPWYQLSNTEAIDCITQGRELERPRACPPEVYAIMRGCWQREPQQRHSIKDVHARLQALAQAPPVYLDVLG
Procedure: The ability of a compound to bind to TrkA was measured by Invitrogen's LanthaScreen™ Eu Kinase Binding Assay. […] After a 60-minute incubation at 22° C., the reaction was measured using the EnVision via TR-FRET dual wavelength detection, and the POC was calculated from the emission ratio. The compound dose response data was fit to a 4-parameter logistic model and IC50 was defined as the concentration of compound at 50 POC.

[3] = ether bond

Sequence of histidine-tagged recombinant human TrkA, cytoplasmic domain (P04629 440-796): as above

Row | Structure (SMILES) | pIC50 [1] | pIC50 [2] | further results
1 | O=C1NCCCOc2ncc(F)cc2[C@H]2CCCN2c2ccn3ncc1c3n2 [Example 3, (6R)-9-fluoro-13-oxa-2,11,17,21,22,25-hexaazapentacyclo[17.5.2.0^2,6.0^7,12.0^22,26]hexacosa-1(25),7,9,11,19(26),20,23-heptaen-18-one] | 7.00 to 9.00 | 7.00 to 9.00 | ring closure, yield of all isomers (from O=C(NCCCCl)c1cnn2ccc(N3CCC[C@@H]3c3cc(F)cnc3O)nc12, ether bond, Cs2CO3, DMF, […], 85.0 °C, 16.0 h): 44%
2 | O=C1NC[C@H](O)COc2ccc(F)cc2C2CC(F)(F)CN2c2ccn3ncc1c3n2 (some centres unmarked) | – | – | ring closure, yield of all isomers (from O=C(NC[C@H](O)CCl)c1cnn2ccc(N3CC(F)(F)CC3c3cc(F)ccc3O)nc12, ether bond, Cs2CO3, DMF, 20.0 mM, 85.0 °C, 0.5 h): 44%
3 | O=C1NCCCOc2ccc(F)cc2[C@H]2CCCN2c2ccn3ncc1c3n2 [Example 20, (6R)-9-fluoro-13-oxa-2,17,21,22,25-pentaazapentacyclo[17.5.2.0^2,6.0^7,12.0^22,26]hexacosa-1(25),7,9,11,19(26),20,23-heptaen-18-one] | 7.00 to 9.00 | 7.00 to 9.00 | ring closure, yield of all isomers (from CCOC(=O)c1cnn2ccc(N3CCC[C@@H]3c3cc(F)ccc3OCCCN)nc12, amide bond, DIEA, EtOH, 230.0 mM, 200.0 °C): 50%
4 | O=C1NCCOc2ncc(F)cc2[C@H]2CCCN2c2ccn3ncc1c3n2 [Example 9, (6R)-9-fluoro-13-oxa-2,11,16,20,21,24-hexaazapentacyclo[16.5.2.0^2,6.0^7,12.0^21,25]pentacosa-1(24),7,9,11,18(25),19,22-heptaen-17-one] | – | – | ring closure, yield of all isomers (from O=C(NCCCl)c1cnn2ccc(N3CCC[C@@H]3c3cc(F)c[nH]c3=O)nc12, ether bond, Cs2CO3, DMF, […], 85.0 °C, 0.5 h): 24%; pIC50 ([1]; averaged IC50 values, […] TrkA, 500 μM ATP, 25 minutes at ambient temperature): 7.00 to 9.00; pIC50 ([2]; averaged IC50 values, TR-FRET, 60-minute incubation at 22° C., 2% DMSO final): 7.00 to 9.00
5 | O=C1NCCCOc2cccc(n2)[C@H]2CCCN2c2ccn3ncc1c3n2 [Example 2, (6R)-12-oxa-2,16,20,21,24,26-hexaazapentacyclo[16.5.2.1^7,11.0^2,6.0^21,25]hexacosa-1(24),7(26),8,10,18(25),19,22-heptaen-17-one] | 7.00 to 9.00 | 7.00 to 9.00 | –
6 | O=C(CO)N1CCOc2ccc(F)cc2[C@H]2CCCN2c2ccn3ncc(c3n2)C1 [Example 23, 1-[(6R)-9-fluoro-13-oxa-2,16,20,21,24-pentaazapentacyclo[16.5.2.0^2,6.0^7,12.0^21,25]pentacosa-1(24),7,9,11,18(25),19,22-heptaen-16-yl]-2-hydroxyethan-1-one] | 7.00 to 9.00 | 7.00 to 9.00 | –
7 | O=C1NCCCOc2ncc(F)cc2[C@H]2COC(=O)N2c2ccn3ncc1c3n2 [Example 30, (6S)-9-fluoro-4,13-dioxa-2,11,17,21,22,25-hexaazapentacyclo [17.5.2.0^2,6.0^7,12.0^22,26]hexacosa-1(25),7(12),8,10,19(26),20,23-heptaene-3,18-dione] | 7.00 to 9.00 | – | ring closure, yield of all isomers (from O=C(NCCCCl)c1cnn2ccc(N3C(=O)OC[C@@H]3c3cc(F)c[nH]c3=O)nc12, ether bond, Cs2CO3, DMF, 26.7 mM, 65.0 °C, 48.5 h): 41%
8 | O=C1NCCCCOc2ncc(F)cc2[C@H]2CCCN2c2ccn3ncc1c3n2 [Example 10, (6R)-9-fluoro-13-oxa-2,11,18,22,23,26-hexaazapentacyclo[18.5.2.0^2,6.0^7,12.0^23,27]heptacosa-1(26),7,9,11,20(27),21,24-heptaen-19-one] | 7.00 to 9.00 | 7.00 to 9.00 | –
9 | O=C1NC[C@H](O)COc2ccc(F)cc2[C@H]2C[C@@H](O)CN2c2ccn3ncc1c3n2 [Example 41, (4R,6R,15S)-9-fluoro-4,15-dihydroxy-13-oxa-2,17,21,22,25-pentaazapentacyclo [17.5.2.0^2,6.0^7,12.0^22,26]hexacosa-1(25),7(12),8,10,19(26),20,23-heptaen-18-one] | – | 7.00 to 9.00 | ring closure, yield of all isomers (from O=C(NC[C@H](O)CCl)c1cnn2ccc(N3C[C@H](O)CC3c3cc(F)ccc3O)nc12, ether bond, Cs2CO3, DMF, 21.6 mM, 85.0 °C, 0.5 h): 16.2%

Second part, led by results:

Row | pIC50 [1] | pIC50 [2] | Structure (SMILES) | further results
10 | – | 7.00 to 9.00 | CC1(C)CCc2ncc(F)cc2[C@H]2CCCN2c2ccn3ncc(c3n2)C(=O)N1 [Example 37] | ring closure, yield of all isomers (from COC(=O)c1cnn2ccc(N3CCC[C@@H]3c3cc(F)cnc3CCC(C)(C)NC(=O)OC(C)(C)C)nc12, amide bond, EDCI/HOBt/Et3N, DMF, 39.4 mM, 45.0 °C, 18.0 h, 3 steps): 48.3%
11 | – | 7.00 to 9.00 | O=C1Nc2ncccc2COc2ncc(F)cc2[C@H]2CCCN2c2ccn3ncc1c3n2 [Example 39, (6R)-9-fluoro-13-oxa-2,11,19,21,25,26,29-heptaazahexacyclo [21.5.2.0^2,6.0^7,12.0^15,20.0^26,30]triaconta-1(29),7,9,11,15(20),16,18,23(30),24,27-decaen-22-one] | ring closure, yield of all isomers (from O=C(Nc1ncccc1CCl)c1cnn2ccc(N3CCC[C@@H]3c3cc(F)cnc3O)nc12, ether bond, Cs2CO3, DMF, 84.8 mM, 60.0 °C, 4.0 h, 4 steps): 2.2%
12 | – | 7.00 to 9.00 | O=C1Nc2ccnn2CCOc2ncc(F)cc2[C@H]2CCCN2c2ccn3ncc1c3n2 [Example 38, (6R)-9-fluoro-13-oxa-2,11,16,17,21,25,26,29-octaazahexacyclo [21.5.2.0^2,6.0^7,12.0^16,20.0^26,30]triaconta-1(29),7,9,11,17,19,23(30),24,27-nonaen-22-one] | ring closure, isolated yield ([3]; from O=C(Nc1ccnn1CCO)c1cnn2ccc(N3CCC[C@@H]3c3cc(F)cnc3O)nc12, 15-membered ring, DEAD/PPh3, THF, 14.3 mM, 2 steps): 1.5%; ring closure, yield of all isomers (from COc1ncc(F)cc1[C@H]1CCCN1c1ccn2ncc(C(=O)Nc3ccnn3CCO[Si](c3ccccc3)(c3ccccc3)C(C)(C)C)c2n1, ether bond, DEAD/PPh3, THF, 14.25 mM, 25.0 °C, 18.0 h, 2 steps): 1.5%
13 | 7.00 to 9.00 | 7.00 to 9.00 | O=C1NC[C@@H](O)COc2ncc(F)cc2[C@H]2CCCN2c2ccn3ncc1c3n2 [Example 7, (6R,15R)-9-fluoro-15-hydroxy-13-oxa-2,11,17,21,22,25-hexaazapentacyclo-[17.5.2.0^2,6.0^7,12.0^22,26]hexacosa-1(25),7,9,11,19(26),20,23-heptaen-18-one] | ring closure, yield of all isomers (from O=C(NC[C@@H](O)CCl)c1cnn2ccc(N3CCC[C@@H]3c3cc(F)c[nH]c3=O)nc12, ether bond, Cs2CO3, DMF, 98.6 mM, 85.0 °C, 1.0 h): 40%
14 | 7.00 to 9.00 | 7.00 to 9.00 | CN1CCCOc2ncc(F)cc2[C@H]2CCCN2c2ccn3ncc(c3n2)C1=O [Example 18, (6R)-9-fluoro-17-methyl-13-oxa-2,11,17,21,22,25-hexaazapentacyclo[17.5.2.0^2,6.0^7,12.0^22,26]hexacosa-1(25),7,9,11,19(26),20,23-heptaen-18-one] | ring closure, yield of all isomers (from CN(CCCCl)C(=O)c1cnn2ccc(N3CCC[C@@H]3c3cc(F)c[nH]c3=O)nc12, ether bond, Cs2CO3, DMF, 10.0 mM, 90.0 °C, 0.25 h): 36%
15 | 7.00 to 9.00 | 7.00 to 9.00 | O=C1NC[C@@H](O)Cn2cc(F)cc(c2=O)[C@H]2CCCN2c2ccn3ncc1c3n2 [Example 8] | –
16 | 5.52 to 7.00 | – | O=C1OCCn2cc(F)cc(c2=O)[C@H]2CCCN2c2ccn3ncc1c3n2 [Example 15, (6R)-9-fluoro-14-oxa-2,11,18,19,22-pentaazapentacyclo[14.5.2.1^7,11.0^2,6.0^19,23]tetracosa-1(22),7,9,16(23), 17,20-hexaene-15,24-dione] | ring closure, isolated yield ([3]; from O=C(OCCCl)c1cnn2ccc(N3CCC[C@@H]3c3cc(F)c[nH]c3=O)nc12, 13-membered ring, Cs2CO3, DMF, 22.2 mM, 90.0 °C, 16.0 h): 22%
17 | – | 7.00 to 9.00 | O=C1NCCCc2ncc(F)cc2[C@H]2CCCN2c2ccn3ncc1c3n2 [Example 32, (6R)-9-fluoro-2,11,16,20,21,24-hexaazapentacyclo[16.5.2.0^2,6.0^7,12.0^21,25]pentacosa-1(24),7,9,11,18(25),19,22-heptaen-17-one] | ring closure, yield of all isomers (from NCCCc1ncc(F)cc1[C@H]1CCCN1c1ccn2ncc(C(=O)O)c2n1, amide bond, HATU, DMF, 8.4 mM, 3.0 h): 39%
18 | 7.00 to 9.00 | – | O=C1OCCOc2ncc(F)cc2[C@H]2CCCN2c2ccn3ncc1c3n2 [Example 14, (6R)-9-fluoro-13,16-dioxa-2,11,20,21,24-pentaazapentacyclo[16.5.2.0^2,6.0^7,12.0^21,25]pentacosa-1(24),7,9,11,18(25),19,22-heptaen-17-one] | ring closure, yield of all isomers (from O=C(OCCCl)c1cnn2ccc(N3CCC[C@@H]3c3cc(F)c[nH]c3=O)nc12, ether bond, Cs2CO3, DMF, 22.2 mM, 90.0 °C, 16.0 h): 31%
19 | 7.00 to 9.00 | 7.00 to 9.00 | O=C1NOCCOc2ncc(F)cc2[C@H]2CCCN2c2ccn3ncc1c3n2 [Example 16, (6R)-9-fluoro-13,16-dioxa-2,11,17,21,22,25-hexaazapentacyclo [17.5.2.0^2,6.0^7,12.0^22,26]hexacosa-1(25),7,9,11,19(26),20,23-heptaen-18-one] | ring closure, yield of all isomers (from O=C(NOCCCl)c1cnn2ccc(N3CCC[C@@H]3c3cc(F)c[nH]c3=O)nc12, ether bond, Cs2CO3, DMF, 100.0 mM, 90.0 °C, […]): 1%
